For assay [1], the system named is Proteus mirabilis. As to the kind of experiment: Antimicrobial activity against wild type Proteus mirabilis N2 after 16 to 18 hrs by broth micro dilution assay. The assay is classed as functional.
Assay [2] deals with Proteus mirabilis. As to the kind of experiment: Antimicrobial activity against Proteus mirabilis dU2 knockout mutant after 16 to 18 hrs by broth micro dilution assay. Type of assay: functional.
Assay [3] relates to Proteus mirabilis. As to the kind of experiment: Antimicrobial activity against Proteus mirabilis dG1 knockout after 16 to 18 hrs by broth micro dilution assay. The assay is classed as functional.
Assay [4] has as its system Proteus mirabilis. The assay can be described thus: Antimicrobial activity against Proteus mirabilis dU2 knockout mutant transformed with pACYC184-ugd after 16 to 18 hrs by broth micro dilution assay. Type of assay: functional.
The subject of assay [5] is Proteus mirabilis. The assay can be described thus: Antimicrobial activity against Proteus mirabilis dG1 knockout mutant transformed with pACYC184-galU after 16 to 18 hrs by broth micro dilution assay. Type of assay: functional.
In assay [6] the test system is Proteus mirabilis. As to the kind of experiment: Induction of Ugd expression in wild type Proteus mirabilis N2 at 1 ug/ml by real-time RT-PCR analysis. The assay is classed as functional, organism-based.
The test system of assay [7] is Proteus mirabilis. As to the kind of experiment: Induction of Ugd expression in Proteus mirabilis dA10 rppA knockout mutant at 1 ug/ml by real-time RT-PCR analysis. The assay is classed as functional, organism-based. (In qPCR the cycle at which signal appears reflects the starting amount.)
The subject of assay [8] is Proteus mirabilis. As to the kind of experiment: Induction of Ugd expression in wild type Proteus mirabilis dA10c RppA-complemented strain at 1 ug/ml by real-time RT-PCR analysis. The assay is classed as functional, organism-based.

The source made the active and inactive calls.

As a reminder, the MIC is the smallest concentration in the dilution series that meets the test's criterion for growth inhibition. High values mean weaker potency, low ones greater potency. Take `CCCCCCCCCCCCOS(=O)(=O)[O-].[Na+]` [SODIUM LAURYL SULFATE]: the MIC in assay [1] is 2000 µg/mL; in assay [2], 500 µg/mL; in assay [3], 500 µg/mL; in assay [4], 2000 µg/mL; in assay [5] it was 2000 µg/mL.

In the case of POLYMYXIN B, the MIC turned out to be 2 µg/mL in assay [2] and 4 µg/mL in assay [3]. Moreover, the outcome in assay [6] and in assay [7] was Active. Also, the outcome in assay [8] was inactive.

These data come from ChEMBL document CHEMBL1255428, “Characterization of UDP-glucose dehydrogenase and UDP-glucose pyrophosphorylase mutants of Proteus mirabilis: defectiveness in polymyxin B resistance, swarming, and virulence” (2010).
